Reference: patent US12383512B2, “Cannabidiol-type cannabinoid compound” (Jazz Pharmaceuticals Research UK LImited, priority 2019, dated 2025)
Like-named read-outs stand apart in the source and are kept apart here.

Experiments:
[1] = test system: seizure threshold current for tonic hind limb extensor convulsions in mice; assay: Maximal electroshock seizure threshold (MEST) test in the mouse; settings: for % change from vehicle (CC50) / CC50 ± SEM: MEST test
Protocol: The efficacy of 6-OH CBD was tested in a mouse model of generalised seizure, the maximal electroshock seizure threshold (MEST) test.
In the MEST test the ability of a drug to alter the seizure threshold current required to induce hind limb tonic extensor convulsions is measured according to an “up and down” method of shock titration (Kimball et al., 1957). An increase in seizure threshold is indicative of anti-convulsant effect.
The ability of a test compound to alter the stimulus intensity, expressed as current (mA), required to induce the presence of tonic hind limb extensor convulsions, is assessed in the MEST.
Naïve mice were acclimatised to the procedure room in their home cages for up to 7 days, with food and water available ad libitum.
All animals were weighed at the beginning of the study and randomly assigned to treatment groups based on a mean distribution of body weight across groups.
The first animal within a treatment group was given a shock at the expected or estimated CC50 current. For subsequent animals, the current was lowered or raised depending on the convulsions outcome from the preceding animal.
Data generated from each treatment group were used to calculate the CC50±SEM values for the treatment group.
Vehicle: (5% ethanol, 5% solutol, 90% Saline) was prepared as follows: 2 mL of ethanol, 2 mL of solutol were warmed to 60° C., in 36 mL of saline (1:1:18).
The test compound, alpha 6-OH CBD was prepared according to the method described in Example 1. 6-OH CBD was administered at 3, 10 and 30 mg/kg (i.p.) in a 1:1:18 ethanol:solutol:0.9% saline formulation.
6-OH CBD effects were also calculated as percentage change in CC50 from the vehicle control group.
Significant difference between drug-treated animals and controls were assessed according to Litchfield and Wilcoxon (1949).

[2] = test system: tonic hind limb extensor seizure following corneally delivered electroshock in mice; assay: Supramaximal electroshock seizure (MES) test in the mouse; format: in vivo
Protocol: The MES test is a very stringent model in which mice receive a predetermined high-level electrical stimulus of sufficient intensity to reliably produce tonic hindlimb extensor seizures in 100% of control animals. As such the MES test is a rigorous evaluation of anticonvulsant activity (Swinyard, 1985).
Animals were dosed i.p. according to treatment group. […]
In addition, a dose of 100 mg/kg CBD was given at 10 ml/kg i.p. at 120 minutes pre-treatment time to assess the effect of the drug over a longer time course.
The positive control valproate was used at 250 mg/kg (10 ml/kg i.p. 30 min pre-treatment time).
Induction of seizure is measured as an all-or-nothing effect scored as either present (+) or absent (0) for each animal.
Data was collected by an observer unaware of the treatment for each animal and was expressed as the number of +'s or 0's for each treatment group.
The percentage inhibition of relevant vehicle treated group (the protection relative to vehicle treated controls) was then generated.
Significant differences between individual treatment groups and vehicle-treated groups were assessed using 2-tailed Fisher's Exact Probability test (p<0.05 considered significant).

[3] = Plasma and brain pharmacokinetics after single intravenous or intraperitoneal administration to the mouse; format: in vivo; settings: for Kp: brain/plasma, other: intravenous and intraperitoneal, all IV and IP dose groups
Excerpt: The objective of this study was to determine brain and plasma pharmacokinetic parameters of 6-OH CBD following a single intravenous or intraperitoneal administration of 6-OH CBD to the mouse; and to determine brain: plasma concentration ratios for 6-OH CBD.
Ninety-nine male mice each received a single intravenous or intraperitoneal dose of 6-OH CBD, as detailed below in Table 3.
For each formulation, 6-OH CBD was formulated at the required concentration in ethanol: Kolliphor EL (Cremophor EL): 0.9% (w/v) Saline (1:1:18, v/v/v).
Each animal received a single intravenous administration, via a tail vein, at a nominal dose volume of 2 mL/kg or a single intraperitoneal administration at a nominal dose volume of 5 mL/kg.
Following dosing, terminal blood samples were collected from each animal via cardiac puncture, and brains were excised, at each of the following time points: • Intravenous groups: 7, 15 and 30 minutes, 1, 2, 4, 8, 12 and 24 hours; • Intraperitoneal groups: 15 and 30 minutes, 1, 2, 4, 8, 12 and 24 hours.
Blood was collected into tubes containing lithium heparin anticoagulant and centrifuged to prepare plasma. Brain samples were frozen on dry ice, then weighed and stored deep frozen prior to bioanalysis. The remaining carcasses were discarded. Plasma was stabilised with an equal volume of ascorbic acid solution, then stored deep frozen prior to bioanalysis.
Stabilised plasma samples were analysed to determine the concentrations of 6-OH CBD, using qualified LC-MS/MS methods. The results of these analyses were evaluated to determine non-compartmental pharmacokinetic parameters.
The following parameters were determined: • Cmax Maximum concentration observed. • Tmax Time of maximum observed concentration. • AUC0-t Area under the concentration-time curve from hour 0 to the last quantifiable concentration, estimated by the linear trapezoidal rule. • AUC0-24 Area under the concentration-time curve from hour 0 to hour 24, estimated using the linear trapezoidal rule. • t1/2 Elimination half-life, determined as In(2)/λz. • Cl Clearance, calculated (for intravenous doses only) as Dose/AUC0-inf. • Vss Volume of distribution, based on the terminal elimination phase, calculated (for intravenous doses only) as Cl/λz. • Fabs Absolute bioavailability of the intraperitoneal dose.

[4] = 3 mg/kg i.p., pre-treatment time 30 min
[5] = 10 mg/kg i.p., pre-treatment time 15 min
[6] = 30 mg/kg i.p., pre-treatment time 60 min

Which results are given for C=C(C)[C@@H]1CC(O)C(C)=C[C@H]1c1c(O)cc(CCCCC)cc1O (stereo partly drawn) [6-OH CBD, Alpha 6-hydroxy cannabidiol]?
effect on MEST in words ([1]; 3, 10 and 30 mg/kg i.p.): dose-related increase in MEST; % change from vehicle (CC50) [1, 4]: 25%; CC50 ± SEM [1, 4]: 30.0 ± 1.1 mA; % change from vehicle (CC50) [1, 5]: 135%; CC50 ± SEM [1, 5]: 56.5 ± 2.1 mA; % change from vehicle (CC50) [1, 6]: 327%; CC50 ± SEM [1, 6]: 102.5 ± 2.2 mA; % change from vehicle ([2]; 3 mg/kg i.p., pre-treatment time 60 min): 0%; seizure outcome in words ([2]; 3 mg/kg i.p., text says 120 minutes before the test): ineffective; % change from vehicle [2, 6]: 100%; seizure outcome in words ([2]; 30 mg/kg i.p., text says 120 minutes before the test): enabled all mice within the group to withstand seizures; seizure outcome in words ([2]; 100 mg/kg given 120 minutes before): statistically significant reduction of seizures; % change from vehicle ([2]; 100 mg/kg i.p., pre-treatment time 60 min): 100%; % change from vehicle ([2]; 100 mg/kg i.p., pre-treatment time 120 min): 100%; seizure outcome in words ([2]; 100 mg/kg i.p., text says 120 minutes before the test): enabled all mice within the group to withstand seizures; % change from vehicle ([2]; 200 mg/kg i.p., pre-treatment time 60 min): 100%; seizure outcome in words ([2]; 200 mg/kg i.p., text says 120 minutes before the test): enabled all mice within the group to withstand seizures; increase in brain AUC0-24 for a 10-fold increase in dose level ([3]; brain, IP 3 to 30 mg/kg): 32.6 fold; increase in brain Cmax for a 10-fold increase in dose level ([3]; brain, IP 3 to 30 mg/kg): 15.8 fold; Cmax ([3]; male, brain, IP 3 mg/kg): 851 ng/mL; Cmax ([3]; male, brain, IP 10 mg/kg): 3680 ng/mL; Cmax ([3]; male, brain, IP 30 mg/kg): 13500 ng/mL; Cmax ([3]; male, brain, IV 1 mg/kg): 1580 ng/mL; AUC(0-t) ([3]; male, brain, ip, 3 mg/kg, brain, IP 3 mg/kg, read-out: AUC0-24): 768 ng·h/mL; AUC(0-t) ([3]; male, brain, ip, 3 mg/kg, brain, IP 3 mg/kg, read-out: AUC0-t): 756 ng·h/mL; Tmax ([3]; male, brain, ip, 3 mg/kg, brain, IP 3 mg/kg, read-out: Tmax (converted)): 30 min; half-life ([3]; male, brain, ip, 3 mg/kg, brain, IP 3 mg/kg, read-out: t1/2 (converted)): 34.1 min; AUC(0-t) ([3]; male, brain, ip, 10 mg/kg, brain, IP 10 mg/kg, read-out: AUC0-24): 3940 ng·h/mL; AUC(0-t) ([3]; male, brain, ip, 10 mg/kg, brain, IP 10 mg/kg, read-out: AUC0-t): 3750 ng·h/mL; Tmax ([3]; male, brain, ip, 10 mg/kg, brain, IP 10 mg/kg, read-out: Tmax (converted)): 15 min; half-life ([3]; male, brain, ip, 10 mg/kg, brain, IP 10 mg/kg, read-out: t1/2 (converted)): 42.4 min; AUC(0-t) ([3]; male, brain, ip, 30 mg/kg, brain, IP 30 mg/kg, read-out: AUC0-24): 25000 ng·h/mL; AUC(0-t) ([3]; male, brain, ip, 30 mg/kg, brain, IP 30 mg/kg, read-out: AUC0-t): 25000 ng·h/mL; Tmax ([3]; male, brain, ip, 30 mg/kg, brain, IP 30 mg/kg, read-out: Tmax (converted)): 60 min; half-life ([3]; male, brain, ip, 30 mg/kg, brain, IP 30 mg/kg, read-out: t1/2 (converted)): 55.1 min; half-life ([3]; male, brain, ip, brain, IP administration 3-30 mg/kg, read-out: t1/2 range): 34.1 to 55.1 min; Tmax ([3]; male, brain, ip, brain, after IP dosing (3-30 mg/kg), read-out: Tmax range): 15 to 60 min; AUC(0-t) ([3]; male, brain, iv, 1 mg/kg, brain, IV 1 mg/kg, read-out: AUC0-24): 690 ng·h/mL; AUC(0-t) ([3]; male, brain, iv, 1 mg/kg, brain, IV 1 mg/kg, read-out: AUC0-t): 679 ng·h/mL; Tmax ([3]; male, brain, iv, 1 mg/kg, brain, IV 1 mg/kg, read-out: Tmax (converted)): 7.02 min; half-life ([3]; male, brain, iv, 1 mg/kg, brain, IV 1 mg/kg, read-out: t1/2 (converted)): 18.7 min; Kp ([3]; male, read-out: Brain: plasma ratio for AUC0-24, range): 1.41 to 2.01; Kp ([3]; male, read-out: Brain: plasma ratio for Cmax, range): 1.23 to 2.03; Cmax ([3]; male, plasma, IP 3 mg/kg): 658 ng/mL; Cmax ([3]; male, plasma, IP 10 mg/kg): 2550 ng/mL; Cmax ([3]; male, plasma, IP 30 mg/kg): 11000 ng/mL; Cmax ([3]; male, plasma, IV 1 mg/kg): 775 ng/mL; clearance ([3]; male, plasma, IV 1 mg/kg): 48.7 mL/min/kg; Vd ([3]; male, plasma, IV 1 mg/kg, read-out: Vss): 1.9 L/kg; AUC(0-t) ([3]; male, plasma, ip, 3 mg/kg, plasma, IP 3 mg/kg, read-out: AUC0-24): 535 ng·h/mL; AUC(0-t) ([3]; male, plasma, ip, 3 mg/kg, plasma, IP 3 mg/kg, read-out: AUC0-t): 533 ng·h/mL; Tmax ([3]; male, plasma, ip, 3 mg/kg, plasma, IP 3 mg/kg, read-out: Tmax (converted)): 15 min; half-life ([3]; male, plasma, ip, 3 mg/kg, plasma, IP 3 mg/kg, read-out: t1/2 (converted)): 59.6 min; AUC(0-t) ([3]; male, plasma, ip, 10 mg/kg, plasma, IP 10 mg/kg, read-out: AUC0-24): 2600 ng·h/mL; AUC(0-t) ([3]; male, plasma, ip, 10 mg/kg, plasma, IP 10 mg/kg, read-out: AUC0-t): 2590 ng·h/mL; Tmax ([3]; male, plasma, ip, 10 mg/kg, plasma, IP 10 mg/kg, read-out: Tmax (converted)): 15 min; half-life ([3]; male, plasma, ip, 10 mg/kg, plasma, IP 10 mg/kg, read-out: t1/2 (converted)): 64.8 min; AUC(0-t) ([3]; male, plasma, ip, 30 mg/kg, plasma, IP 30 mg/kg, read-out: AUC0-24): 17700 ng·h/mL; AUC(0-t) ([3]; male, plasma, ip, 30 mg/kg, plasma, IP 30 mg/kg, read-out: AUC0-t): 17700 ng·h/mL; Tmax ([3]; male, plasma, ip, 30 mg/kg, plasma, IP 30 mg/kg, read-out: Tmax (converted)): 15 min; half-life ([3]; male, plasma, ip, 30 mg/kg, plasma, IP 30 mg/kg, read-out: t1/2 (converted)): 57.5 min; Tmax ([3]; male, plasma, ip, 30 mg/kg, plasma, IP 3, 10 or 30 mg/kg (each dose level), read-out: Tmax (converted)): 15 min; half-life ([3]; male, plasma, ip, 30 mg/kg, plasma, IP 3, 10 or 30 mg/kg, read-out: t1/2 range across dose levels): 59.6 to 64.8 min; AUC(0-t) ([3]; male, plasma, iv, 1 mg/kg, plasma, IV 1 mg/kg, read-out: AUC0-24): 343 ng·h/mL; AUC(0-t) ([3]; male, plasma, iv, 1 mg/kg, plasma, IV 1 mg/kg, read-out: AUC0-t): 342 ng·h/mL; Tmax ([3]; male, plasma, iv, 1 mg/kg, plasma, IV 1 mg/kg, read-out: Tmax (converted)): 7.02 min; half-life ([3]; male, plasma, iv, 1 mg/kg, plasma, IV 1 mg/kg, read-out: t1/2 (converted)): 27.1 min; Fabs ([3]; plasma, IP 3 mg/kg): 52.1%; Fabs ([3]; plasma, IP 10 mg/kg): 75.8%; Fabs ([3]; plasma, IP 30 mg/kg): 173%; increase in plasma AUC0-24 for a 10-fold increase in dose level ([3]; plasma, IP 3 to 30 mg/kg): 33.2 fold; increase in plasma Cmax for a 10-fold increase in dose level ([3]; plasma, IP 3 to 30 mg/kg): 16.7 fold

For CN1C(=O)CN=C(c2ccccc2)c2cc(Cl)ccc21 [Diazepam, diazepam, reference compound], which “% change from vehicle (CC50)” value ([1]; 2.5 mg/kg i.p., pre-treatment time 30 min) is on record?
Its value is 103%.

Which “% change from vehicle” value ([2]; 250 mg/kg i.p., pre-treatment time 30 min) does the source give for CCCC(CCC)C(=O)O [Valproate, valproate, reference compound] here?
The value was 100%.
